PubChem BioAssay (NCI)
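Values below derive from 48-hour exposures of cells grown in 96-well plates, with endpoints linearly interpolated between the two concentrations bracketing the appropriate inhibition level. GI50: concentration for 50% inhibition of growth. Definition used: TGI = concentration required for complete inhibition of growth.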

Assays:
Assay in all cases: inhibition of tumour cell growth, NCI panel, 48 h
SK-OV-3 ovarian = system: SK-OV-3 ovarian
EKVX NSCLC = system: EKVX NSCLC
MDA-MB-231 breast = system: MDA-MB-231 breast
SK-MEL-28 melanoma = system: SK-MEL-28 melanoma
SF-295 CNS = system: SF-295 CNS
A549 NSCLC = system: A549 NSCLC
HOP-92 NSCLC = system: HOP-92 NSCLC
MCF7 breast = system: MCF7 breast
HS 578T breast = system: HS 578T breast
SF-268 CNS = system: SF-268 CNS

Compound | GI50 (SK-OV-3 ovarian) [µM] | TGI (SK-OV-3 ovarian) [µM] | GI50 (EKVX NSCLC) [µM] | TGI (EKVX NSCLC) [µM] | GI50 (MDA-MB-231 breast) [µM] | TGI (MDA-MB-231 breast) [µM] | GI50 (SK-MEL-28 melanoma) [µM] | TGI (SK-MEL-28 melanoma) [µM] | GI50 (SF-295 CNS) [µM] | TGI (SF-295 CNS) [µM] | GI50 (A549 NSCLC) [µM] | TGI (A549 NSCLC) [µM] | GI50 (HOP-92 NSCLC) [µM] | TGI (HOP-92 NSCLC) [µM] | GI50 (MCF7 breast) [µM] | TGI (MCF7 breast) [µM] | GI50 (HS 578T breast) [µM] | TGI (HS 578T breast) [µM] | GI50 (SF-268 CNS) [µM] | TGI (SF-268 CNS) [µM]
OCC1SC(n2cnc3cncnc32)C(O)C1O (stereo not drawn) | > 100 | > 100 | > 100 | > 100 | > 100 | > 100 | > 100 | > 100 | > 100 | > 100 | > 100 | > 100 | 48.1 | > 100 | > 100 | > 100 | > 100 | > 100 | > 100 | > 100
CC(C)C1CN1CC(O)Cn1ccnc1[N+](=O)[O-] (stereo not drawn) |  | > 100 |  | > 100 |  | > 100 |  | > 100 |  | > 100 |  | > 100 |  |  |  | > 100 |  | > 100 |  | > 100
Cn1ncc2cc(-c3cnc(N)c(Cl)c3N3CCC4(CCNC4=O)CC3)ccc21 | 31.5 | > 100 | 12.9 | > 100 | 23 | 86.3 | 33 | > 100 | 31.2 | > 100 | > 100 | > 100 | 13 | 82.4 | 24.6 | > 100 | 19.8 | 89.5 | 21.3 | > 100
O=C(Cn1ccnc1[N+](=O)[O-])N(CCO)CCO | > 58 | > 250 | > 1250 | > 1250 |  | > 250 | > 1250 | > 1250 | > 185 | > 753 | > 1250 | > 1250 | > 250 | > 1250 | > 250 | > 1250 |  | > 250 | > 1250 | > 1250
CN(C)c1c(Cl)c(=O)oc2c1ccc1nc(-c3ccccc3)sc12 |  |  |  | > 100 |  | > 100 |  | > 100 |  | > 100 |  | > 100 |  | > 100 |  | > 100 |  | > 100 |  | > 100
Cc1c(Cl)ccc2c1NC(=O)C2(O)CC(=O)c1ccc(Cl)cc1Cl (stereo not drawn) |  | > 50 |  | > 50 |  | > 50 |  | > 50 |  | > 50 |  | > 50 |  | > 50 |  | > 50 |  | 48.9 |  | > 50
C[C@]12CC[C@H](O)CC1=CC[C@@H]1[C@@H]2CC[C@]2(C)C(=O)/C(=C/c3cccc(OCCCn4ccnc4)c3)C[C@@H]12 | 17.4 | 62.7 | 21.1 | 46.3 | 20.6 | 40.4 | 22.2 | 51.5 | 31.7 | > 100 | 13.8 | 28.8 | 12.6 | 32.3 | 23.1 | 54.1 | 21.5 | 54.2 | 21.4 | 55.6
COc1ccc(-c2cc3c4c(nc5ccccc5c4c2)CC(c2cc(OC)c(OC)c(OC)c2)O3)cc1 (stereo not drawn) | 4.08 | 17.2 | 5.01 | > 100 | 2.15 | 7.16 | 2.36 | 6.62 | 3.5 | 12.5 |  |  | 1.62 | 4.71 | 2.36 | 79.5 | 1.24 | 6.81 | 1.72 | 5.48
CC1=CC[C@@H]2[C@@H](CC[C@@]2(C)O)C(C)(C)[C@H]1CC[C@@H]1[C@@]2(C)CCC(=O)C(C)(C)O[C@@H]2CC[C@]1(C)O |  | > 100 |  | > 100 |  | > 100 |  | > 100 |  | 48.9 |  | > 100 |  |  |  | > 100 |  | 77 |  | > 100
c1ccc2c(c1)O[As](O[As]1Oc3ccccc3O1)O2 | 11.7 | 26 |  |  | 2.11 | 10.7 | 3.04 | 15.1 | 6.48 | 22.9 | 12 | 47.8 | 0.86 | 5.31 | 1.86 | 13.2 | 3.47 | 65.9 | 2.47 | 12.1
O=C1Nc2ccc(F)c3c(OCCO)cc(-c4ccc[nH]4)c1c23 | 1.47 | 25 |  |  | 2.03 | 9.53 | 4.43 | 15.1 | 2.43 | 18.9 | 1.21 | 8.57 | 0.908 | 5.4 | 0.81 | 10.9 | 1.06 | 10.2 | 2.66 | 6.87
COc1ccc2c(c1)C(=O)c1c-2c(NCCCN(C)C)nc2ccccc12 |  |  | 5.54 | 23.1 | 1.98 | 11.6 | 0.524 | 1.94 | 5.13 | 18.9 | 1.86 | 6 | 1.15 | 8.6 | 1.54 | 4.05 | 3.7 | 16 | 1.7 | 4.71
COC1=CC(c2ccc[nH]2)=N/C1=C\c1[nH]c(C)c(C(=O)CCC(=O)Oc2ccc3c(c2)CCC2C3CC[C@]3(C)C(=O)CC[C@@H]23)c1C (stereo partly drawn) | > 100 | > 100 |  |  | 0.276 | 1.19 | > 70.9 | > 100 | 21.4 | 85.3 | 2.65 | > 100 | 2.09 | 16.5 | 1.91 | > 49.3 | 14.2 | > 100 | 5.58 | > 100
CO/N=C(\c1ccccc1)c1cnn(-c2ccccc2)c1N | > 25 | > 25 |  |  | > 25 | > 25 | > 25 | > 25 | > 25 | > 25 | > 25 | > 25 | > 12.4 | > 25 | > 25 | > 25 | > 25 | > 25 | > 25 | > 25
